Reference: ChEMBL document CHEMBL3390836, “Mannich- and LedererManasse-based analogues of the natural product S-(+)-curcuphenol as cancer proliferation and migration inhibitors” (Medchemcomm, 2012)
pIC50: −log10 of the molar value.

Assays:
[1] = Cytotoxicity against human NCI-ADR-RES cells assessed as cell growth at 10 uM after 48 hrs by SRB assay relative to control; assay type: functional; conditions: read-out: Activity
HT-29 = assay: Cytotoxicity against human HT-29 cells assessed as cell growth at 10 uM after 48 hrs by SRB assay relative to control; assay type: functional; conditions: HT-29, 48 h, read-out: Activity
[2] = Cytotoxicity against human HCT15 cells assessed as cell growth at 10 uM after 48 hrs by SRB assay relative to control; assay type: functional; conditions: HCT-15, 48 h, read-out: Activity
NCI-H23 = assay: Cytotoxicity against human NCI-H23 cells assessed as cell growth at 10 uM after 48 hrs by SRB assay relative to control; assay type: functional; conditions: NCI-H23, 48 h, read-out: Activity
SF-539 = assay: Cytotoxicity against human SF539 cells assessed as cell growth at 10 uM after 48 hrs by SRB assay relative to control; assay type: functional; conditions: SF-539, 48 h, read-out: Activity
TK-10 = assay: Cytotoxicity against human TK10 cells assessed as cell growth at 10 uM after 48 hrs by SRB assay relative to control; assay type: functional; conditions: TK-10, 48 h, read-out: Activity
[3] = Cytotoxicity against human HCT116 cells assessed as cell growth at 10 uM after 48 hrs by SRB assay relative to control; assay type: functional; conditions: HCT-116, 48 h, read-out: Activity
MCF7 [4] = assay: Cytotoxicity against human MCF7 cells assessed as cell growth at 10 uM after 48 hrs by SRB assay relative to control; assay type: functional; conditions: MCF7, 48 h, read-out: Activity
[5] = Cytotoxicity against human Hs 578T cells assessed as cell growth at 10 uM after 48 hrs by SRB assay relative to control; assay type: functional; conditions: read-out: Activity
SW-620 = assay: Cytotoxicity against human SW620 cells assessed as cell growth at 10 uM after 48 hrs by SRB assay relative to control; assay type: functional; conditions: SW-620, 48 h, read-out: Activity
COLO 205 = assay: Cytotoxicity against human COLO205 cells assessed as cell growth at 10 uM after 48 hrs by SRB assay relative to control; assay type: functional; conditions: COLO 205, 48 h, read-out: Activity
[6] = Cytotoxicity against human OVCAR5 cells assessed as cell growth at 10 uM after 48 hrs by SRB assay relative to control; assay type: functional; conditions: OVCAR-5, 48 h, read-out: Activity
MCF7 [7] = assay: Growth inhibition of human MCF7 cells after 72 hrs by MTT assay; assay type: functional, cell-based; conditions: MCF7, 72 h
[8] = Cytotoxicity against human OVCAR4 cells assessed as cell growth at 10 uM after 48 hrs by SRB assay relative to control; assay type: functional; conditions: OVCAR-4, 48 h, read-out: Activity
IGROV-1 = assay: Cytotoxicity against human IGROV1 cells assessed as cell growth at 10 uM after 48 hrs by SRB assay relative to control; assay type: functional; conditions: IGROV-1, 48 h, read-out: Activity
MDA-MB-231 [9] = assay: Cytotoxicity against human MDA-MB-231 cells assessed as growth inhibition after 24 hrs by MTT assay; assay type: cell-based; conditions: MDA-MB-231, 24 h
[10] = Cytotoxicity against human UACC62 cells assessed as cell growth at 10 uM after 48 hrs by SRB assay relative to control; assay type: functional; conditions: UACC-62, 48 h, read-out: Activity
786-0 = assay: Cytotoxicity against human 786-0 cells assessed as cell growth at 10 uM after 48 hrs by SRB assay relative to control; assay type: functional; conditions: 786-0, 48 h, read-out: Activity
MOLT-4 = assay: Cytotoxicity against human MOLT4 cells assessed as cell growth at 10 uM after 48 hrs by SRB assay relative to control; assay type: functional; conditions: MOLT-4, 48 h, read-out: Activity
[11] = Cytotoxicity against human OVCAR8 cells assessed as cell growth at 10 uM after 48 hrs by SRB assay relative to control; assay type: functional; conditions: OVCAR-8, 48 h, read-out: Activity
[12] = Cytotoxicity against human OVCAR3 cells assessed as cell growth at 10 uM after 48 hrs by SRB assay relative to control; assay type: functional; conditions: OVCAR-3, 48 h, read-out: Activity
SN12C = assay: Cytotoxicity against human SN12C cells assessed as cell growth at 10 uM after 48 hrs by SRB assay relative to control; assay type: functional; conditions: read-out: Activity
SF-295 = assay: Cytotoxicity against human SF295 cells assessed as cell growth at 10 uM after 48 hrs by SRB assay relative to control; assay type: functional; conditions: SF-295, 48 h, read-out: Activity
SK-MEL-2 = assay: Cytotoxicity against human SK-MEL-2 cells assessed as cell growth at 10 uM after 48 hrs by SRB assay relative to control; assay type: functional; conditions: SK-MEL-2, 48 h, read-out: Activity
HCC 2998 = assay: Cytotoxicity against human HCC2998 cells assessed as cell growth at 10 uM after 48 hrs by SRB assay relative to control; assay type: functional; conditions: HCC 2998, 48 h, read-out: Activity
RXF 393 = assay: Cytotoxicity against human RXF393 cells assessed as cell growth at 10 uM after 48 hrs by SRB assay relative to control; assay type: functional; conditions: RXF 393, 48 h, read-out: Activity
[13] = Cytotoxicity against human UO31 cells assessed as cell growth at 10 uM after 48 hrs by SRB assay relative to control; assay type: functional; conditions: UO-31, 48 h, read-out: Activity
NCI-H226 = assay: Cytotoxicity against human NCI-H226 cells assessed as cell growth at 10 uM after 48 hrs by SRB assay relative to control; assay type: functional; conditions: NCI-H226, 48 h, read-out: Activity
MDA-MB-231 [14] = assay: Cytotoxicity against human MDA-MB-231 cells assessed as cell growth at 10 uM after 48 hrs by SRB assay relative to control; assay type: functional; conditions: MDA-MB-231, 48 h, read-out: Activity
HOP-62 = assay: Cytotoxicity against human HOP62 cells assessed as cell growth at 10 uM after 48 hrs by SRB assay relative to control; assay type: functional; conditions: HOP-62, 48 h, read-out: Activity
SK-MEL-28 = assay: Cytotoxicity against human SK-MEL-28 cells assessed as cell growth at 10 uM after 48 hrs by SRB assay relative to control; assay type: functional; conditions: SK-MEL-28, 48 h, read-out: Activity
[15] = Cytotoxicity against human EKVX cells assessed as cell growth at 10 uM after 48 hrs by SRB assay relative to control; assay type: functional; conditions: read-out: Activity
RPMI-8226 = assay: Cytotoxicity against human RPMI8226 cells assessed as cell growth at 10 uM after 48 hrs by SRB assay relative to control; assay type: functional; conditions: RPMI-8226, 48 h, read-out: Activity
T47D = assay: Cytotoxicity against human T47D cells assessed as cell growth at 10 uM after 48 hrs by SRB assay relative to control; assay type: functional; conditions: read-out: Activity
ACHN = assay: Cytotoxicity against human ACHN cells assessed as cell growth at 10 uM after 48 hrs by SRB assay relative to control; assay type: functional; conditions: read-out: Activity
NCI-H460 = assay: Cytotoxicity against human NCI-H460 cells assessed as cell growth at 10 uM after 48 hrs by SRB assay relative to control; assay type: functional; conditions: NCI-H460, 48 h, read-out: Activity

Row | SMILES | growth at 10 µM [1] | growth at 10 µM (HT-29) | growth at 10 µM [2] | growth at 10 µM (NCI-H23) | growth at 10 µM (SF-539) | growth at 10 µM (TK-10) | growth at 10 µM [3] | growth at 10 µM (MCF7 [4]) | growth at 10 µM [5] | growth at 10 µM (SW-620) | growth at 10 µM (COLO 205) | growth at 10 µM [6] | pIC50 (MCF7 [7]) | growth at 10 µM [8] | growth at 10 µM (IGROV-1) | pIC50 (MDA-MB-231 [9]) | growth at 10 µM [10] | growth at 10 µM (786-0) | growth at 10 µM (MOLT-4) | growth at 10 µM [11] | other results
1 | CC(C)=CCC[C@H](C)c1ccc(C)c2c1OCN(CCO)C2 | 73.5% | 68.7% | 105% | 81.7% | 88.2% | 88.4% | 71.8% | 83.9% | 75.6% | 100% | 119% | 83.7% | 5.08 | 79% | 66.7% | < 4.70 | 96.1% | 61% | 101% | 86.3% | growth at 10 µM [12]: 86.1%; growth at 10 µM (SN12C): 79.6%; growth at 10 µM (SF-295): 98.6%; growth at 10 µM (SK-MEL-2): 99.2%; growth at 10 µM (HCC 2998): 84.4%; growth at 10 µM (RXF 393): 52.4%; growth at 10 µM [13]: 42.4%; growth at 10 µM (NCI-H226): 91.2%; growth at 10 µM (MDA-MB-231 [14]): 88.8%; growth at 10 µM (HOP-62): 80.4%; growth at 10 µM (SK-MEL-28): 111%; growth at 10 µM [15]: 97.2%; growth at 10 µM (RPMI-8226): 83.2%; growth at 10 µM (T47D): 70%; growth at 10 µM (ACHN): 90.1%; growth at 10 µM (NCI-H460): 96%
2 | CC(C)=CCC[C@H](C)c1ccc(C)c(CNCCO)c1O | 88.7% | 90.6% | 98.6% | 89.1% | 96.5% | 81% | 93.4% | 105% | 83.1% | 100% | 105% | 87.6% | < 4.70 | 108% | 94.9% | < 4.70 | 92.7% | 83.7% | 87.5% | 89.6% | growth at 10 µM [12]: 95.7%; growth at 10 µM (SN12C): 91.5%; growth at 10 µM (SF-295): 105%; growth at 10 µM (SK-MEL-2): 93%; growth at 10 µM (HCC 2998): 76.9%; growth at 10 µM (RXF 393): 79.2%; growth at 10 µM [13]: 54.7%; growth at 10 µM (NCI-H226): 90%; growth at 10 µM (MDA-MB-231 [14]): 86.1%; growth at 10 µM (HOP-62): 81%; growth at 10 µM (SK-MEL-28): 112%; growth at 10 µM [15]: 89%; growth at 10 µM (RPMI-8226): 86.9%; growth at 10 µM (T47D): 90.2%; growth at 10 µM (ACHN): 97.9%; growth at 10 µM (NCI-H460): 102%
